Measurements published in ChEMBL document CHEMBL6078723, “Novel steroidal β-carboline derivatives as promising antibacterial candidates against methicillin-resistant Staphylococcus aureus” (Eur J Med Chem, 2025).
The source made the active and inactive calls. The calls are words filed in the database; no cut-off is given here.

Tests used:
Staphylococcus aureus [1] = test: Antibacterial activity against methicillin-resistant Staphylococcus aureus CGMCC1.12409 at pH 6.5 (reference value: 0.5 ug/ml); type: functional
Staphylococcus aureus [2] = test: Antibacterial activity against Staphylococcus aureus CGMCC1.8721 at pH 6.5 (reference value: 0.5 ug/ml); type: functional
Staphylococcus aureus [3] = test: Induction of morphological change in Staphylococcus aureus CGMCC1.8721 assessed as appearance of atrophy at MIC by […] SEM analysis; type: functional, organism-based
Staphylococcus aureus [4] = test: Bactericidal activity against Staphylococcus aureus CGMCC1.8721 at 4 to 8 times MIC incubated for 0.5 to 1 hr by time kill assay relative to control; type: functional; conditions: time 0.5-1 hrs
Staphylococcus aureus [5] = test: Antibacterial activity against methicillin-resistant Staphylococcus aureus ATCC 43300 in presence of Fe2+ (reference value: 0.5 ug/ml); type: functional
Staphylococcus aureus [6] = test: Antibacterial activity against Staphylococcus aureus CGMCC1.8721 in presence of phosphatidylethanolamine; type: functional, organism-based
Staphylococcus aureus [7] = test: Induction of inner membrane permeability in Staphylococcus aureus CGMCC1.8721 assessed as increase in red fluorescence intensity by PI staining based analysis; type: functional, organism-based
Staphylococcus aureus [8] = test: Antibacterial activity against Staphylococcus aureus CGMCC1.8721 at pH 8 (reference value: 0.5 ug/ml); type: functional
Staphylococcus aureus [9] = test: Antibacterial activity against methicillin-resistant Staphylococcus aureus ATCC 43300 in presence of H2PO4- (reference value: 0.5 ug/ml); type: functional
Staphylococcus aureus [10] = test: Induction of morphological change in Staphylococcus aureus CGMCC1.8721 assessed as depression of cell surface at 4 times MIC by […] SEM analysis; type: functional, organism-based
[11] = Hemolytic activity in rabbit RBC; type: toxicity, cell-based, Oryctolagus cuniculus, Erythrocyte; conditions: rabbit red blood cells
Staphylococcus aureus [12] = test: Antibacterial activity against methicillin-resistant Staphylococcus aureus CGMCC1.12409 infected in mouse model assessed as reduction in abscesses size at 5 to 10 mg/kg measured for 5 days; type: functional, organism-based; conditions: dose 5-10 mg/kg, time 5.0 day
Staphylococcus aureus [13] = test: Antibacterial activity against methicillin-resistant Staphylococcus aureus ATCC 33591 in presence of Ca2+ (reference value: 1 ug/ml); type: functional
Staphylococcus aureus [14] = test: Antibacterial activity against Staphylococcus aureus CGMCC1.8721 in presence of ATP; type: functional, organism-based
Staphylococcus aureus [15] = test: Bactericidal activity against Staphylococcus aureus CGMCC1.8721 by CLSI based method; type: functional
Staphylococcus aureus [16] = test: Bactericidal activity against methicillin-resistant Staphylococcus aureus CGMCC1.12409 by CLSI based method; type: functional
Staphylococcus aureus [17] = test: Antibacterial activity against Staphylococcus aureus CGMCC1.8721 in presence of H2PO4- (reference value: 0.5 ug/ml); type: functional
Staphylococcus aureus [18] = test: Antibacterial activity against methicillin-resistant Staphylococcus aureus ATCC 33591 in presence of H2PO4- (reference value: 1 ug/ml); type: functional
Staphylococcus aureus [19] = test: Antibacterial activity against methicillin-resistant Staphylococcus aureus ATCC 33591 in presence of Fe2+ (reference value: 1 ug/ml); type: functional
[20] = Selectivity index, ratio of HC50 for hemolytic activity in rabbit RBC to MIC for antibacterial activity against Staphylococcus aureus; type: toxicity, cell-based; conditions: rabbit red blood cells
Staphylococcus aureus [21] = test: Antibacterial activity against methicillin-resistant Staphylococcus aureus ATCC 33591 in presence of Zn2+ (reference value: 1 ug/ml); type: functional
Staphylococcus aureus [22] = test: Antibacterial activity against methicillin-resistant Staphylococcus aureus CGMCC1.12409 in presence of Fe3+ (reference value: 0.5 ug/ml); type: functional
Staphylococcus aureus [23] = test: Inhibition of metabolic activity in Staphylococcus aureus CGMCC1.8721; type: functional, organism-based
HEK-293T = test: Cytotoxicity against HEK293T cells at 40 uM by CCK8 assay relative to control; type: toxicity, cell-based; conditions: human
Staphylococcus aureus [24] = test: Antibacterial activity against methicillin-resistant Staphylococcus aureus CGMCC1.12409 infected in mouse model assessed as reduction in abscesses in subcutaneous tissues at 10 mg/kg measured for 5 days; type: functional, organism-based; conditions: time 5.0 day
Staphylococcus aureus [25] = test: Induction of morphological change in Staphylococcus aureus CGMCC1.8721 assessed as cell rupture at 4 times MIC by […] SEM analysis; type: functional, organism-based
Staphylococcus aureus [26] = test: Antibacterial activity against Staphylococcus aureus CGMCC1.8721 in presence of phosphatidylcholine; type: functional, organism-based
Staphylococcus aureus [27] = test: Antibacterial activity against Staphylococcus aureus CGMCC1.8721 in presence of Fe3+ (reference value: 0.5 ug/ml); type: functional
Staphylococcus aureus [28] = test: Antibacterial activity against methicillin-resistant Staphylococcus aureus ATCC 43300 at 37.5 degreeC (reference value: 0.5 ug/ml); type: functional
Staphylococcus aureus [29] = test: Antibacterial activity against methicillin-resistant Staphylococcus aureus CGMCC1.12409 in presence of Zn2+ (reference value: 0.5 ug/ml); type: functional
Staphylococcus aureus [30] = test: Induction of morphological change in Staphylococcus aureus CGMCC1.8721 assessed as appearance of surface folds at MIC by […] SEM analysis; type: functional, organism-based
Staphylococcus aureus [31] = test: Antibacterial activity against methicillin-resistant Staphylococcus aureus ATCC 43300 in presence of Fe3+ (reference value: 0.5 ug/ml); type: functional
Staphylococcus aureus [32] = test: Antibacterial activity against methicillin-resistant Staphylococcus aureus ATCC 43300 in presence of Mg2+ (reference value: 0.5 ug/ml); type: functional
Staphylococcus aureus [33] = test: Antibacterial activity against Staphylococcus aureus CGMCC1.8721 in presence of Fe2+ (reference value: 0.5 ug/ml); type: functional
Staphylococcus aureus [34] = test: Antibacterial activity against Staphylococcus aureus CGMCC1.8721 in presence of Mg2+ (reference value: 0.5 ug/ml); type: functional
Staphylococcus aureus [35] = test: Antibacterial activity against methicillin-resistant Staphylococcus aureus ATCC 33591 in presence of Na+ (reference value: 1 ug/ml); type: functional
Staphylococcus aureus [36] = test: Antibacterial activity against methicillin-resistant Staphylococcus aureus CGMCC1.12409 in presence of H2PO4- (reference value: 0.5 ug/ml); type: functional
Staphylococcus aureus [37] = test: Antibiofilm activity against Staphylococcus aureus CGMCC1.8721 at 4 times MIC by crystal violet staining based analysis relative to control; type: functional
Staphylococcus aureus [38] = test: Antibacterial activity against Staphylococcus aureus CGMCC1.8721 in presence of Na+ (reference value: 0.5 ug/ml); type: functional
Staphylococcus aureus [39] = test: Antibacterial activity against methicillin-resistant Staphylococcus aureus CGMCC1.12409 infected in mouse model assessed as reduction in skin lession in subcutaneous tissues at 10 mg/kg measured for 5 days; type: functional, organism-based; conditions: time 5.0 day
Staphylococcus aureus [40] = test: Bactericidal activity against methicillin-resistant Staphylococcus aureus ATCC 33591 by CLSI based method; type: functional
HeLa = test: Cytotoxicity against human HeLa cells at 40 uM by CCK8 assay relative to control; type: toxicity, cell-based
Staphylococcus aureus [41] = test: Antibacterial activity against methicillin-resistant Staphylococcus aureus ATCC 43300 in presence of Ca2+ (reference value: 0.5 ug/ml); type: functional
Staphylococcus aureus [42] = test: Antibacterial activity against methicillin-resistant Staphylococcus aureus ATCC 33591 at pH 8 (reference value: 1 ug/ml); type: functional

COc1ccc2[nH]c3c(CC[C@H](C)[C@H]4CC[C@H]5[C@@H]6[C@H](O)C[C@@H]7C[C@H](O)CC[C@]7(C)[C@H]6C[C@H](O)[C@]45C)[n+](Cc4ccc(Cl)cc4)ccc3c2c1.[Br-]
MIC (Staphylococcus aureus [1]): 1 µg/mL | MIC (Staphylococcus aureus [2]): 0.5 µg/mL | Activity (Staphylococcus aureus [3]): Active | Activity (Staphylococcus aureus [4]): 100% | MIC (Staphylococcus aureus [5]): 0.5 µg/mL | Activity (Staphylococcus aureus [6]): Active | Activity (Staphylococcus aureus [7]): Dose-dependent-effect | MIC (Staphylococcus aureus [8]): 0.5 µg/mL | MIC (Staphylococcus aureus [9]): 0.5 µg/mL | Activity (Staphylococcus aureus [10]): Active | HC50 [11]: > 256 µg/mL | Activity (Staphylococcus aureus [12]): Active | MIC (Staphylococcus aureus [13]): 1 µg/mL | Activity (Staphylococcus aureus [14]): Active | MBC (Staphylococcus aureus [15]): 1 µg/mL | MBC (Staphylococcus aureus [16]): 1 µg/mL | MIC (Staphylococcus aureus [17]): 0.5 µg/mL | MIC (Staphylococcus aureus [18]): 1 µg/mL | MIC (Staphylococcus aureus [19]): 1 µg/mL | selectivity ratio [20]: > 256 | MIC (Staphylococcus aureus [21]): 1 µg/mL | MIC (Staphylococcus aureus [22]): 1 µg/mL | inhibition (Staphylococcus aureus [23]): Dose-dependent-effect | Activity (HEK-293T): Non-toxic | Activity (Staphylococcus aureus [24]): Active | Activity (Staphylococcus aureus [25]): Active | Activity (Staphylococcus aureus [26]): Active | MIC (Staphylococcus aureus [27]): 0.5 µg/mL | MIC (Staphylococcus aureus [28]): 0.5 µg/mL | MIC (Staphylococcus aureus [29]): 1 µg/mL | Activity (Staphylococcus aureus [30]): Active | MIC (Staphylococcus aureus [31]): 0.5 µg/mL | MIC (Staphylococcus aureus [32]): 0.5 µg/mL | MIC (Staphylococcus aureus [33]): 0.5 µg/mL | MIC (Staphylococcus aureus [34]): 0.5 µg/mL | MIC (Staphylococcus aureus [35]): 1 µg/mL | MIC (Staphylococcus aureus [36]): 1 µg/mL | Activity (Staphylococcus aureus [37]): ~87% | MIC (Staphylococcus aureus [38]): 0.5 µg/mL | Activity (Staphylococcus aureus [39]): Active | MBC (Staphylococcus aureus [40]): 2 µg/mL | Activity (HeLa): Non-toxic | MIC (Staphylococcus aureus [41]): 0.5 µg/mL | MIC (Staphylococcus aureus [42]): 1 µg/mL
